Experimental findings from ChEMBL document CHEMBL1255342, “Efficacy of benzoxazinorifamycins in a mouse model of Chlamydia pneumoniae lung infection” (2008) are described below.

In brackets after ≈: the same amount, converted by molar mass. Several values for one entry are separate records, joined by “and”; a condition that tells them apart may be missing. Identical values can stand only once.

Holding throughout (format): functional
Assay [1] relates to Chlamydia pneumoniae. In words: Antimicrobial activity against Chlamydia pneumoniae TW-183 after 72 hrs by twofold dilution method. The settings on record: TW-183, 72 h.
The test system of assay [2] is Chlamydia pneumoniae. In words: Antimicrobial activity against Chlamydia pneumoniae AR39 infected in C57BL/6J mouse at 1 mg/kg, ip assessed as bacterial load measured on day 10 post infection relative to control. The settings on record: route intraperitoneal.
The subject of assay [3] is Chlamydia pneumoniae. The assay is described as follows: Antimicrobial activity against Chlamydia pneumoniae AR39 infected in C57BL/6J mouse at 3 mg/kg, ip assessed as bacterial load measured on day 10 post infection relative to control. The settings on record: route intraperitoneal.

`CO[C@H]1/C=C/O[C@@]2(C)Oc3c(C)c(O)c4c(=O)c(c5oc6cc(N7CCN(CC(C)C)CC7)cc(O)c6nc-5c4c3C2=O)NC(=O)/C(C)=C\C=C\[C@H](C)[C@H](O)[C@@H](C)[C@@H](O)[C@@H](C)[C@H](OC(C)=O)[C@@H]1C` [RIFALAZIL]: in assay [1], it took 0.25 ng/mL (≈ 0.266 nM) to inhibit growth (MIC). Further, the values for the Efficacy in assay [2] and in assay [3] were 0.24% and 1.14%, respectively.

In the case of `CO[C@H]1/C=C/O[C@@]2(C)Oc3c(C)c(O)c4c(=O)c(c5oc6cc(N7CC8CCC(C7)N8C)cc(O)c6nc-5c4c3C2=O)NC(=O)/C(C)=C\C=C\[C@H](C)[C@H](O)[C@@H](C)[C@@H](O)[C@@H](C)[C@H](OC(C)=O)[C@@H]1C`, the lowest concentration to inhibit growth in assay [1] (MIC) was 0.125 ng/mL (≈ 0.135 nM). The Efficacy in assay [2] was 0.14%; in assay [3], under 0.025%.

`CO[C@H]1/C=C/O[C@@]2(C)Oc3c(C)c(O)c4c(=O)c(c5oc6cc(N7CC(N(C)C)C7)cc(O)c6nc-5c4c3C2=O)NC(=O)/C(C)=C\C=C\[C@H](C)[C@H](O)[C@@H](C)[C@@H](O)[C@@H](C)[C@H](OC(C)=O)[C@@H]1C` had an MIC in assay [1] of 0.064 ng/mL (≈ 0.0712 nM). Further, the Efficacy in assay [2] worked out at 0.06%; in assay [3], 0.025%.

As for `CO[C@H]1/C=C/O[C@@]2(C)Oc3c(C)c(O)c4c(=O)c(c5oc6cc(N7CCC(C)(C)N(C)C(C)(C)C7)cc(O)c6nc-5c4c3C2=O)NC(=O)/C(C)=C\C=C\[C@H](C)[C@H](O)[C@@H](C)[C@@H](O)[C@@H](C)[C@H](OC(C)=O)[C@@H]1C`, in assay [1], 0.064 ng/mL (≈ 0.066 nM) was the least that counted as inhibitory (MIC). Moreover, the results for the Efficacy in assay [2] and in assay [3] were 0.03% and under 0.025%, respectively.

Turning to `CO[C@H]1/C=C/O[C@@]2(C)Oc3c(C)c(O)c4c(=O)c(c5oc6cc(N7CCN(CC8CC8)CC7)cc(O)c6nc-5c4c3C2=O)NC(=O)/C(C)=C\C=C\[C@H](C)[C@H](O)[C@@H](C)[C@@H](O)[C@@H](C)[C@H](O)[C@@H]1C`, in assay [1], 0.064 ng/mL (≈ 0.0713 nM) was the least that counted as inhibitory (MIC). The Efficacy in assay [2] stood at 1.34%; in assay [3] it was 15.51%.

For the molecule `CO[C@H]1/C=C/O[C@@]2(C)Oc3c(C)c(O)c4c(=O)c(c5oc6cc(N7CCN(C)CC7)cc(O)c6nc-5c4c3C2=O)NC(=O)/C(C)=C\C=C\[C@H](C)[C@H](O)[C@@H](C)[C@@H](O)[C@@H](C)[C@H](O)[C@@H]1C`, in assay [1], the MIC stood at 0.125 ng/mL (≈ 0.146 nM). Further, the Efficacy in assay [2] (1 mg/kg) was 1.26% and 6.04%; in assay [3] (3 mg/kg), 0.44% and 0.18%.

As for `CO[C@H]1/C=C/O[C@@]2(C)Oc3c(C)c(O)c4c(=O)c(c5oc6cc(N7CCC(C)(N(C)C)CC7)cc(O)c6nc-5c4c3C2=O)NC(=O)/C(C)=C\C=C\[C@H](C)[C@H](O)[C@@H](C)[C@@H](O)[C@@H](C)[C@H](OC(C)=O)[C@@H]1C`, the Efficacy is 0.49% in assay [2] and 0.56% in assay [3].

As a reminder, the MIC is the least concentration at which growth counts as inhibited. Read a high MIC as a need for much substance.
